Data set [1] relates to coronary-perfused canine right (RV) and left (LV) ventricular wedge models of JWS. The data set is described as follows: Coronary-perfused ventricular wedge models of the J wave syndromes (NS5806 alone or with verapamil). More on the design: QT interval / T wave amplitude / Epi (APD50) / Epi (APD90): unit not given here. As for the experimental part: Ten hearts from purpose-bred adult male mongrel dogs (20-22 kg) were acquired from Covance (Denver, PA) and another 10 hearts from purpose-bred adult male Beagle dogs (10-16 kg) were obtained from Envigo (Denver, PA). Dogs were sedated with ketamine (10 mg/kg, IM) and xylazine 2 (mg/kg, IM). Prior to euthanasia (Euthasol solution: pentobarbital sodium and phenytoin sodium; 0.22 ml/kg, IV), and heparin (human pharmaceutical grade, 1,000 U/kg, IV) were administered 3-4 min before isolation of the hearts via a left thoracotomy. Retrograde aortic perfusion of the hearts with ice-cold cardioplegic solution (modified K-H solution; 16 mM KCl) was immediately performed to rinse the coronary vasculature of blood. The hearts were then placed in a sealed container containing ice-cold cardioplegic solution and transported to our institution via private courier in an insulated package filled with icepacks.
Transmural wedges were dissected from the base of the RV and LV. During the cannulation procedure, preparations were initially arterially perfused with cardioplegic solution. Next, the wedge preparations were placed in a tissue bath and perfused with a modified Krebs-Henseleit solution (K—H) bubbled with 95% O2/5% CO2 warmed to 37° C. The composition of K—H was (in mM): 118 NaCl, 4 KCl, 2 CaCl2, 1.2 MgSO4, 24 NaHCO3, 1.2 NaH2PO4, 2 Na Pyruvate and 10 D-Glucose. The perfusate was delivered at a constant pressure (45-50 mmHg). A transmural pseudo-ECG (ECG) was recorded using two Ag/AgCl half cells placed at ˜1 cm from the Epi (+) and Endo (−) surfaces along the same axis as the transmembrane action potential (AP) recordings. APs were simultaneously recorded from the immediate sub-Epi and M cell region (˜2-3 mm from the Endo surface) using floating glass microelectrodes. Pacing was applied to the Endo surface using bipolar silver electrodes insulated except at the tips (Basic Cycle Lengths [BCLs]: 500-2,000 ms). A detailed description of the arterially-perfused ventricular wedge preparation has been previously published.^5 ECG and AP signals were digitized and analyzed using Spike 2 for Windows (Cambridge Electronic Design, Cambridge, UK).
We used the Ito-agonist NS5806 (5-10 μM) alone or with the calcium-channel blocker verapamil (2.5 μM) to pharmacologically mimic the effects of the ion channel genetic defects underlying ERS and BrS. These provocative agents were added to the coronary perfusate in increasing concentrations until the characteristic ECG phenotypes were unmasked, including phase 2 reentry (P2R), closely coupled premature beats (CCPBs) and/or pVT/VF. AR-787 was added to the perfusate to test its ability to suppress or prevent arrhythmogenesis.

For data set [2] the following is noted: high doses / high plasma levels; cited from earlier work.
Setting [3] is: NS5806 5-10 μM, 3 LV wedges, BCL 800 msec.

On to `O=C(Nc1cc(C(F)(F)F)cc(C(F)(F)F)c1)Nc1c(Br)cc(Br)cc1-c1nn[nH]n1` [NS5806, reference compound], for which, in data set [1] (AR-787 1, 10 or 50 μM, NS5806 5-10 μM, five wedges), the QT interval result is recorded as “unaffected”. For the same compound, the “effect on phase 1 magnitude, AP notch and J wave” value in data set [1] (NS5806 5-10 μM in coronary perfusate) is on record as “increased the magnitude of phase 1”. Further, in data set [1] (setting [3]), the “Epi (APD50)” value was found to be 181.8 ± 10.4, the “Epi (APD90)” value was found to be 215.6 ± 5.3, the J wave amplitude worked out at 31.3 ± 4.6 and the “M (APD50)” value came out at 179.5 ± 5.9. In data set [1] (setting [3]), the “M (APD90)” value turned out to be 228.4 ± 7.7, the “Ph1 mag (% Ph0)” value is 40.2 ± 6.5 % Ph0, the QT interval is given as 261.2 ± 4.5 and the T wave amplitude was determined as 17.8 ± 9.6.
In the case of `C=C[C@H]1C[N@@]2CC[C@H]1C[C@@H]2[C@@H](O)c1ccnc2ccc(OC)cc12` [quinidine], in data set [2], the “patients developing serious GI side effects” value is “approximately 50%”.

(Values after patent US20250228824A1, “COMPOSITIONS AND METHODS FOR INHIBITION OF ITO AS TREATMENT FOR THE J WAVE SYNDROMES AND HYPOTHERMIA” (Lankenau Institute for Medical Research, priority 2021, published 2025).)
